{"source": "patent US4940723A", "about": "“Use of bis-(5-amidino-2-benzimidazolyl) methane (BABIM) to treat arthritis” (University of North Carolina, Chapel Hill, priority 1988, dated 1990)", "key": {"[1]": {"tested_on": "Clr", "conditions": "in words; cited from earlier work"}, "[2]": {"tested_on": "plasmin", "conditions": "in words; cited from earlier work"}, "[3]": {"tested_on": "PG-APS-induced arthritis", "test": "Clinical scoring of PG-APS-induced arthritis", "type": "in vivo, Lewis rats", "description": "(§1) Inbred female Lewis rats were purchased from Charles River Laboratories, Inc. Their mean body weight at the start of the study was 145 g. Arthritis was induced by a single intraperitoneal injection of the 10S fraction of purified cell wall material in PBS. The volume was 0.5 ml, and the dose of PG-APS was equivalent to 15 μg of rhamnose content per gram of body weight. For the administration of BABIM into the tail vein the animals were lightly anesthetized with ether. The inhibitor was contained in 0.1 ml of saline. Control animals were injected in the same way, but received saline only. All rats had free access to food and water. Nineteen days after the initiation of arthritis, they were killed with an overdose of ether.\nSeverity of the arthritis was judged daily for the first 11 days after PG-APS injection and every one to three days. Involvement of each extremity was quantified on a scale from 0-4, yielding a maximum combined score of 16. Grading was restricted to the wrist and ankle joints and all joints distal from there. The individual score was based on the number of joints involved, the degree of cutaneous erythema, the extent of the swelling of the skin and periarticular soft tissue, and the enlargement and deformities of the joints.\nThe basic design of the experiments was as follows. Arthritis was induced in two groups of rats by the intraperitoneal application of PG-APS fragments. One group of animals received repeated injections of BABIM dissolved in saline, while the other group received saline only. The inhibitor dose of 10 mg/kg body weight was selected because it has been found effective in preliminary studies.\n(§2) The dosing with inhibitor was begun two days before the induction of arthritis and was continued on a daily basis through day 6. From"}, "[4]": {"tested_on": "PG-APS-induced arthritis", "test": "Histological grading of the severity of PG-APS-induced arthritis (hind leg)", "type": "in vivo, Lewis rats", "description": "as §1\n(§3) After the rats were killed, autopsies were performed. The liver, spleen, kidneys, adrenal glands, and the skinned distal hind legs were saved for further examination. The livers were weighed individually, and a sample of each was frozen and held for ELISA of PG-APS fragments. All other tissues were fixed in phosphate-buffered formalin solution. The bones were decalcified in formic acid-sodium citrate solution. Sections were stained with hematoxylin and eosin.\nFor this evaluation the hind legs were used because they were more severely involved than the front legs. Both hind legs were studied, but as the disease processes were always symmetrical only one leg was scored. Included in the histologic sections were the distal tibia with the ankle joint, the tarsal bones, and the metatarsals. These were ranked on a scale of 0-4, based on the extent of bone marrow hyperplasia, the density of neutrophilic infiltration in bone and soft tissues, the degree of destruction of trabecular and cortical bone, and the magnitude of the synovial and periosteal proliferative response.\nas §2"}, "[5]": {"test": "Toxicity observation (physical, behavioral, organ histology) in BABIM-treated rats", "type": "in vivo, Lewis rats", "description": "as §3, §2"}, "[6]": {"tested_on": "granulomatous splenitis", "test": "Splenic granulomatous involvement (PG-APS-induced granulomatous splenitis)", "type": "in vivo, Lewis rats", "description": "as §1, §3, §2\n*Disease was scored on a scale of 0-4, based on the percentage of\ngranulomatous replacement of splenic parenchyma, where 0 = none, 1 = <25%"}, "[7]": {"tested_on": "trypsin", "conditions": "in words; cited from earlier work"}, "[8]": {"tested_on": "hemolytic complement", "conditions": "in words; cited from earlier work"}, "[9]": {"test": "Dissolution in isotonic saline", "type": "physicochemical", "description": "BABIM was synthesized according to established procedures. Purity of the compound was ascertained by infrared and nuclear magnetic resonance spectroscopy, thin-layer chromatography and elemental analysis. […] Solutions were prepared fresh on the day they were used."}, "[10]": {"tested_on": "PG-APS induced granulomatous hepatitis", "test": "Liver weight and hepatic granulomata (PG-APS-induced granulomatous hepatitis)", "type": "in vivo, Lewis rats", "description": "as §1, §3, §2"}, "[11]": {"tested_on": "PG-APS deposits in liver", "test": "Quantification of PG-APS deposits in liver tissue (ELISA)", "type": "in vivo, Lewis rats", "description": "Measurements were based on a solid-phase enzyme-linked immunosorbent assay (ELISA) as known in the art. Briefly, microtiter plates were charged with group A cell wall antibodies and non-specific binding sites were blocked with human albumin. The coated walls were interacted with the tissue samples, and retention of PG-APS was determined from phosphate hydrolysis following sequential addition of affinity-purified biotinylated cell wall antibodies, avidin-alkaline phosphatase complexes and enzyme substrate. Standard curves were prepared with various amounts of the 10S PG-APS material and were used to correlate enzyme activity with levels of tissue deposits.\nas §1, with “of ether. […]” for “of ether.”"}, "[12]": {"tested_on": "urokinase", "conditions": "in words; cited from earlier work"}, "[13]": {"tested_on": "Cls", "conditions": "in words; cited from earlier work"}, "[14]": {"tested_on": "adjuvant arthritis", "conditions": "Sprague-Dawley rats; cited from earlier work"}}, "note": "Where “and” joins values, the source holds several entries; their conditions need not be identical. Equal entries are not always repeated.", "data": [{"smiles": "N=C(N)c1ccc2nc(Cc3nc4ccc(C(=N)N)cc4[nH]3)[nH]c2c1", "note": "[BABIM, bis-(5-amidino-2-benzimidazolyl) methane]", "values": [{"measurement": "Inhibition in assays of Clr", "setting": "[1]", "value": "only weakly inhibitory"}, {"measurement": "Plasmin inhibition", "setting": "[2]", "value": "potent inhibitor"}, {"measurement": "Effect of 10 mg/kg dose in preliminary studies", "setting": "[3]; 10 mg/kg body weight, preliminary studies", "value": "effective"}, {"measurement": "Suppression of clinical signs of arthritis", "setting": "[3]; FIG. 1, initial response and recurrence, 10 mg/kg", "value": "suppressed the clinical signs of arthritis dramatically"}, {"measurement": "Relative suppression of arthritis versus hepatic and splenic granulomatous response", "setting": "[3]; arthritis component compared with granulomata", "value": "more effectively dealt with"}, {"measurement": "Clinical score (individual animal)", "setting": "[3]; individual BABIM-treated rats, final day (day 19), 10 mg/kg i.v. from day -2, scale 0-4 per extremity, maximum combined 16, 10 mg/kg", "value": "0 and 1 and 2"}, {"measurement": "Treated rats completely free of arthritis at the initial peak", "setting": "[3]; initial peak", "value": "3 of the 7 treated rats"}, {"measurement": "Clinical score, Mean ± SD", "setting": "[3]; n=7, final day of experiment, P < 0.0001 versus vehicle (6.79 ± 2.86)", "value": "0.43 ± 0.79"}, {"measurement": "Treated rats without symptoms during the recurrence", "setting": "[3]; recurrence", "value": "five"}, {"measurement": "Blockade of recurrence of the disease", "setting": "[3]; versus primary response", "value": "blocked as completely as the primary response"}, {"measurement": "Bone marrow composition in calcaneus", "setting": "[4]; FIG. 2B, day 19", "value": "Predominantly fatty marrow"}, {"measurement": "Inflammation of synovial recess of ankle joint", "setting": "[4]; FIG. 4B, day 19", "value": "inflammation is absent"}, {"measurement": "Appearance of joints and bone marrow spaces", "setting": "[4]; cell wall-injected and BABIM-treated Lewis rats", "value": "pristine appearance"}, {"measurement": "BABIM-treated animals with complete absence of histological joint/bone abnormalities", "setting": "[4]; day 19, FIGS. 2B, 3B, 4B", "value": "five"}, {"measurement": "Histologic score (individual animal)", "setting": "[4]; individual BABIM-treated rats, day 19, scale 0-4, 10 mg/kg i.v., 10 mg/kg", "value": "0 and 1.5 and 1"}, {"measurement": "Histologic score, Mean ± SD", "setting": "[4]; n=7, day 19, P < 0.0001 versus vehicle (2.81 ± 0.46)", "value": "0.36 ± 0.63"}, {"measurement": "Joint changes in the two BABIM-treated animals that developed joint disease", "setting": "[4]; versus untreated rats", "value": "on a much smaller scale"}, {"measurement": "Physical or behavioral abnormalities caused by the drug", "setting": "[5]; 10 mg/kg, repeated i.v. injections", "value": "None of the recipients of BABIM showed any physical or behavioral abnormalities"}, {"measurement": "BABIM related toxicity, histological examination", "setting": "[5]; liver, kidney, adrenal glands, and spleen", "value": "absence of BABIM related toxicity"}, {"measurement": "Inhibitor-treated animals with granulomatous inflammation in the spleen", "setting": "[6]; all untreated rats affected", "value": "three"}, {"measurement": "Splenic disease score, Mean ± SD", "setting": "[6]; n=7, scale 0-4, not significantly different from vehicle 2.63 ± 1.3 (P > 0.2)", "value": "1.71 ± 1.5"}, {"measurement": "BABIM recipients rated the highest splenic grade (score of 4)", "setting": "[6]; rat, in vivo", "value": "three"}, {"measurement": "BABIM recipients with no splenic disease", "setting": "[6]; rat, in vivo", "value": "four"}, {"measurement": "Trypsin inhibition", "setting": "[7]", "value": "potent inhibitor"}, {"measurement": "Inhibition in hemolytic complement tests", "setting": "[8]", "value": "only weakly inhibitory"}, {"measurement": "Solubility in isotonic saline", "setting": "[9]", "value": "easily dissolved"}, {"measurement": "Reduction in the number of hepatic granulomata", "setting": "[10]; 0.5 cm^2 liver sections, versus untreated", "value": "two-thirds"}, {"measurement": "Granulomata, No. per section, Mean ± SD", "setting": "[10]; liver, 0.5 cm^2 sections, n=7, P < 0.005 versus vehicle (81.8 ± 34.5)", "value": "25.6 ± 26.3"}, {"measurement": "Percentage of centrally necrotic lesions", "setting": "[10]; liver, both groups", "value": "approximately 50%"}, {"measurement": "Granulomata, % with necrosis", "setting": "[10]; liver, n=7, vehicle 56", "value": 43, "unit": "%"}, {"measurement": "Weight of Liver, Mean ± SD", "setting": "[10]; n=7, day 19, P < 0.002 versus vehicle (18.5 ± 3.8)", "value": "11.0 ± 3.5", "unit": "gm"}, {"measurement": "Size and makeup of hepatic granulomata", "setting": "[10]; versus untreated animals", "value": "same size and makeup"}, {"measurement": "PG-APS deposits, Mean ± SD", "setting": "[11]; liver, n=7, vehicle 0.226 ± 0.072", "value": "0.237 ± 0.055", "unit": "mg"}, {"measurement": "Total amounts of PG-APS fragments deposited in liver", "setting": "[11]; versus untreated animals", "value": "nearly the same"}, {"measurement": "Urokinase inhibition", "setting": "[12]", "value": "potent inhibitor"}, {"measurement": "Inhibition in assays of Cls", "setting": "[13]", "value": "only weakly inhibitory"}]}, {"smiles": "N=C(N)c1ccc2cc(OC(=O)c3ccc(N=C(N)N)cc3)ccc2c1", "note": "[FUT-175]", "values": [{"measurement": "Influence on adjuvant arthritis", "setting": "[14]", "value": "beneficial influence"}]}]}
